Data: publication PMC11239830, “Synthetic macrolides overcoming MLSBK-resistant pathogens” (Cell Discovery, 2024)
In brackets after ≈: the same amount, converted by molar mass.

Key:
S. pyogenes = assay: MIC, broth microdilution; format: cell-based, Streptococcus pyogenes
Summary of the method: (§1)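 Incubation ran for 16–20 h at 37 °C after setup per Clinical and Laboratory Standards Institute microdilution procedure. Growth was then observed to assign the MIC. Assays were replicated at least three times.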

[1] = CCK-8 assay for cytotoxicity; format: cell-based, human; conditions: human, HEK293T cells, HEK293T cell viability
Protocol: HepG2 cells (6 × 10^3) and HEK293T cells (4 × 10^3) were seeded into 96-well plates in 90 μL of DMEM medium containing 10% FBS per well. […] After overnight incubation, the test compound stock solution was diluted with DMEM medium containing 10% FBS to every target concentration, and 10 μL of each was added to each well. Three parallel experiments were set up for each compound. After incubation for 48 h, 10 μL of cell counting kit-8 (CCK-8) reagent was added to each well in sequence according to the manufacturer’s instructions. […] This experiment was independently repeated three times. The data were processed by GraphPad Prism.

S. pneumoniae = assay: MIC, broth microdilution; format: cell-based, Streptococcus pneumoniae
Summary of the method: as §1

WT S. aureus ribosomes = assay: PURE in vitro translation inhibition assay; format: biochemical, Staphylococcus aureus; conditions: mean ± SD
Protocol: (§2) To validate the in vitro activity of our compounds, we employed an in vitro reconstituted E. coli Protein synthesis Using a Recombinant Elements (PURE) translation system, substituting E. coli ribosomes with the purified S. aureus ribosomes.
(§3) 5 μL of PURE reaction mix that translates a gene encoding the Nanoluc luciferase was set up in the presence or absence of tested compounds. Protein synthesis was initiated by incubating reactions at 37 °C for 60 min and stopped by placing on ice for 5 min. Luciferase activity was quantified using the Nano-Glo luciferase assay system and read on a GloMax 20/20 luminometer (Promega, USA). For each compound, the in vitro translation inhibition assay was performed in three biological triplicates over a range of concentrations from 0.001 μM to 1000 μM. A compound-free control was used to normalize luminescence measurements. The calculated luminescence percentages were plotted against compound concentrations on a semilog scale using GraphPad Prism.

[2] = test system: 15B196 S. aureus ribosomes (A2058-methylated); assay: PURE in vitro translation inhibition assay; format: biochemical, Staphylococcus aureus; conditions: mean ± SD
Protocol: as §2, §3

human ribosome = test system: human ribosome; set-up: method as in PMID 32601485; conditions: read-out: IC50, inhibition on human ribosome; cited from earlier work

SMILES | MIC (S. pyogenes; S. pyogenes 01-968, Clinical, i-ermB) [µg/mL] | MIC (S. pyogenes; S. pyogenes 12-207, Clinical, mef) [µg/mL] | MIC (S. pyogenes; S. pyogenes 21K003, Clinical, mef) [µg/mL] | CC50 at 48 h [1] [µM] | MIC (S. pneumoniae; S. pneumoniae 21Q352, Clinical, i-MLSB) [µg/mL] | MIC (S. pneumoniae; S. pneumoniae 21Q353, Clinical, i-MLSB) [µg/mL] | MIC (S. pneumoniae; S. pneumoniae 21X435, Clinical) [µg/mL] | MIC (S. pneumoniae; S. pneumoniae ATCC49619) [µg/mL] | IC50 (WT S. aureus ribosomes) [µM] | IC50 [2] [µM] | IC50 (human ribosome) [µM]
CC[C@H]1OC(=O)[C@H](C)[C@@H](O[C@H]2C[C@@](C)(OC)[C@@H](O)[C@H](C)O2)[C@H](C)[C@@H](O[C@@H]2O[C@H](C)C[C@H](N(C)C)[C@H]2O)[C@](C)(O)C[C@@H](C)C(=O)[C@H](C)[C@@H](O)[C@]1(C)O [erythromycin, reference compound] | 1 (≈ 1.36 µM) | 16 (≈ 21.8 µM) | 16 (≈ 21.8 µM) | > 100 | 64 (≈ 87.2 µM) | 32 (≈ 43.6 µM) | 0.03 (≈ 0.0409 µM) | 0.03 (≈ 0.0409 µM) | 0.18 ± 0.03 | > 10 | 
COC(=O)c1c(OC)cc2cc3c(c(O)c2c1C)C(=O)[C@]1(OC)C(=O)C=C(OC)[C@@H](O)[C@]1(O)C3=O [TcmX, tetracenomycin X] |  |  |  |  |  |  |  |  |  |  | 10
